Here are results for five compounds from ChEMBL document CHEMBL3600365, “Structural and computational study on inhibitory compounds for endonuclease activity of influenza virus polymerase” (Bioorg Med Chem, 2015).

Molecules are shown by their SMILES. pEC50, pIC50: −log10 of the molar value. Calls of active or inactive are those of the source. The calls are words filed in the database; no cut-off is given here.

For data set [1], the target named is Polymerase acidic protein (Influenza A virus (A/Puerto Rico/8/1934(H1N1))) (UniProt P03433). The data set is described as follows: Inhibition of Influenza A/Perto Rico/8/34 (PR8) (H1N1) PAN (1 to 197) endonuclease activity expressed in Escherichia coli Rosetta (DE3) using M13mp18 as substrate at 100 uM after 60 mins by agarose gel elctrophoresis.
Data set [2] deals with Polymerase acidic protein (Influenza A virus (A/Puerto Rico/8/1934(H1N1)), UniProt P03433). The data set is described as follows: Inhibition of Influenza A/Perto Rico/8/34 (PR8) (H1N1) PA N-terminal domain (1 to 197) endonuclease activity expressed in Escherichia coli Rosetta (DE3) using (6-FAM)-AAT CGC AGG CAG CAC TC-(BHQ-1) as substrate measured every 50 secs for 30 mins by FRET assay.

Data set [3] in a line: Cytotoxicity against MDCK cells after 24 hrs by CellTiter 96 AQueous one solution cell proliferation assay. The data set is classed as cell-based, Canis lupus familiaris. To be noted: dog.
The test system of data set [4] is unidentified influenza virus. Nature of the data set: Antiviral activity against Influenza virus infected in MDCK cells assessed as viral RNA content incubated with cells for 30 mins prior to addition of 30 mins preincubated virus-compound mixture for 1 hr followed by 3 times compound washout and again cultured in compound containing virus growth medium for 24 hrs by RT-PCR analysis. Format: functional, organism-based.

Data set [5] addresses Polymerase acidic protein (Influenza A virus (A/Puerto Rico/8/1934(H1N1)), UniProt P03433). Nature of the data set: Inhibition of Influenza A/Puerto Rico/8/34 (H1N1) PA N-terminal domain endonuclease activity expressed in Escherichia coli BL21 (RIL) cells using (6-FAM)TGGCAATATCAGCTCCACA(MGBNFQ) as substrate by fluorescence assay.
In data set [6] the test system is Influenza A virus. Nature of the data set: Antiviral activity against Influenza A virus (A/Puerto Rico/8/1934(H1N1)) infected in MDCK cells after 24 hrs by immunofocus assay. The data set is classed as functional, organism-based.
In data set [7] the test system is Influenza A virus. The data set is described as follows: Antiviral activity against Influenza A virus (A/PR8/34(H1N1)) infected in MDCK cells assessed as inhibition of viral replication after 24 hrs. The data set is classed as functional, organism-based. The conditions noted are these: A/Puerto Rico/8/1934(H1N1).

As for `O=C(COc1ccc(F)cc1)c1ccc(O)c(O)c1O`, in data set [1], the inhibition entry was “Active”. The same compound had a pIC50 in data set [2] of 5.01. The compound also gave a CC50 at 24 h in data set [3] above 200 µM. For the same compound, in data set [4], the pEC50 is 4.93.

`O=c1[nH]c(-c2ccc(F)cc2)c(-c2ccc(-c3nnn[nH]3)cc2)cc1O` showed a pIC50 in data set [5] of 7.96. The compound further gave a pEC50 in the data set with Influenza A virus [6] of 4.96.

With `O=C(O)/C(O)=C/C(=O)C1(Cc2ccc(Cl)cc2)CCN(Cc2ccccc2)CC1`, the pIC50 in the data set on Influenza A virus [7] was 6.46.

In the case of `O=Cc1cc(Cc2ccccc2Cl)cc([N+](=O)[O-])c1O`, in data set [1], the inhibition result is “Active”. This compound also gave a pIC50 in data set [2] of 4.20. For the same compound, in data set [3], the 50% cytotoxic concentration (CC50) at 24 h is 74.1 µM. In data set [4], the negative-log EC50 (pEC50) is 4.94.

As for `Oc1ccc(/C=N/Nc2ccc(Cl)cc2)c(O)c1O`, the inhibition entry in data set [1] was “Active”. Also, the pIC50 in data set [2] was 5.08. In data set [3], this compound registered a CC50 at 24 h above 200 µM. Also, the pEC50 in data set [4] is 4.84.

For orientation: pIC50 means −log10 of the IC50, conventionally taken in molar units. As a reminder, the CC50 is the concentration that lowers cell viability or growth by half. By pEC50 is commonly meant the EC50 on a negative log10 scale, so that one unit is a factor of ten.
